Laboratory results published in patent US8273775B2, “Non-steroidal brassinosteroid mimetic” (priority 2006, dated 2012).

System: gene expression in Col-0 seedling shoots
Assay: Microarray analysis (ATH1 Affymetrix) after BL or abrasin treatment
Type: in vivo, Arabidopsis
Procedure: FIG. 14: Clustering of gene expression profiles by QT-clust analysis. Clusters illustrating the major patterns of the data sets. Points: BIK-30: 30 μM abrasin 30 min; BL-30: 1 μM brassinolide 30 min; DMSO-30: control DMSO 30 min; BIK-120: 30 μM abrasin 120 min; BL-120: 1 μM brassinolide 120 min; DMSO-120: control DMSO 120 min.
Col-0 seeds were germinated vertically on ½ MS medium for 7 days under 16 h light/8 h dark cycles. The seedlings were overlaid with liquid ½ MS medium containing 1 μM brassinolide (BL, Fuji Chemical Industries, Ltd., Toyama, Japan), 30 μM abrasin (BIK, ChemBridge Corporation) and DMSO and treated for 30 and 120 min. The shoot parts were collected for RNA isolation. All sampling points were performed in three independent experiments. RNA was extracted using RNeasy kit (Qiagene). […] total RNA per array was used to hybridise the ATH1 Affymetrix Arabidopsis arrays according to standard procedure. The overrepresentation analyses were performed using BiNGO software (Maere et al., 2005).
We performed a microarray analysis using the Arabidopsis whole genome chip (Affymetix) to determine whether abrasin activated the expression of BR-inducible genes at transcriptional level. Wild-type Col-0 seedlings were exposed to 1 μM BL, 30 μM ABRASIN and DMSO (mock-treatment) for two time points (30 min and 120 min) and the shoot parts were collected for RNA isolation. The analysis of the variance of the normalized gene expression data took in account the variability parameters affecting the expression level: type of hormone treatment, duration of treatment and the interaction between these two.

CC(C)[C@H](C)[C@@H](O)[C@H](O)[C@@H](C)[C@H]1CC[C@H]2[C@@H]3COC(=O)[C@H]4C[C@H](O)[C@H](O)C[C@]4(C)[C@H]3CC[C@]12C [BL, brassinolide, reference compound]
Fold-change of gene AT2G42380 (bZIP transcription factor family protein) (30 min, 265877_at, Cluster 6): 0.81
Fold-change of gene AT2G45080 (cyclin family protein) (30 min, 266124_at, Cluster 8): 0.84
Fold-change AT1G04330 expressed protein (120 min): 1.30
Fold-change AT1G05470 endonuclease/exonuclease/phosphatase family protein (120 min): 1.05
Fold-change AT1G06520 Encodes a membrane associated mitochondrial localized protein (120 min): 3.11
Fold-change AT1G06570 4-hydroxyphenylpyruvate dioxygenase (HPD) (120 min): 0.27
Fold-change AT1G10550 xyloglucan:xyloglucosyl transferase (120 min): 2.19
Fold-change AT1G12710 F-box family protein (120 min): 2.11
Fold-change AT1G12750 rhomboid family protein (120 min): 0.78
Fold-change AT1G14130 2-oxoglutarate-dependent dioxygenase (120 min): 1.31
Fold-change AT1G14700 purple acid phosphatase (120 min): 0.59
Fold-change AT1G16640 transcriptional factor B3 family protein (120 min): 0.95
Fold-change AT1G17230 leucine-rich repeat family protein (120 min): 0.38
Fold-change AT1G18020; AT1G17990 [AT1G18020, 12-oxophytodienoate reductase, (120 min): 0.50
Fold-change AT1G19320 pathogenesis-related thaumatin family protein (120 min): 0.38
Fold-change AT1G20350 mitochondrial import inner membrane translocase subunit (120 min): 1.08
Fold-change AT1G21050 expressed protein (120 min): 0.22
Fold-change AT1G21760 F-box family protein (120 min): 0.60
Fold-change AT1G22360 UDP-glucoronosyl/UDP-glucosyl transferase family protein (120 min): 0.29
Fold-change AT1G23080 auxin efflux carrier protein (PIN7) (120 min): 0.48
Fold-change AT1G26800 zinc finger (C3HC4-type RING finger) family protein, (120 min): 6.09
Fold-change AT1G27730 zinc finger (C2H2 type) family protein (120 min): 0.71
Fold-change AT1G28130 encodes an IAA-amido synthase (120 min): 0.28
Fold-change AT1G28190 expressed protein (120 min): 0.58
Fold-change AT1G28480 glutaredoxin family protein (120 min): 1.38
Fold-change AT1G31040 zinc-binding protein-related (120 min): 1.12
Fold-change AT1G31310 hydroxyproline-rich glycoprotein family protein (120 min): 0.74
Fold-change AT1G31770 ABC transporter family protein (120 min): 0.64
Fold-change AT1G32190 expressed protein (120 min): 0.11
Fold-change AT1G32690 expressed protein (120 min): 0.48
Fold-change AT1G36940 expressed protein (120 min): 0.38
Fold-change AT1G49780 U-box domain-containing protein (120 min): 0.28
Fold-change AT1G53870; AT1G53890 [AT1G53870, expressed protein (120 min): 0.77
Fold-change AT1G54050 17.4 kDa class III heat shock protein (HSP17.4-CIII) (120 min): 3.58
Fold-change AT1G54200 expressed protein (120 min): 2.06
Fold-change AT1G55920 serine O-acetyltransferase (120 min): 1.01
Fold-change AT1G57560 myb family transcription factor (MYB50) (120 min): 2.45
Fold-change AT1G59590 expressed protein (120 min): 1.03
Fold-change AT1G59660 nucleoporin family proteinmily (120 min): 3.15
Fold-change AT1G62300 WRKY family transcription factor (120 min): 0.21
Fold-change AT1G63050 membrane bound O-acyl transferase (MBOAT) family protein (120 min): 0.40
Fold-change AT1G66160 U-box domain-containing protein, (120 min): 1.22
Fold-change AT1G66890 expressed protein (120 min): 0.34
Fold-change AT1G68330 expressed protein (120 min): 1.74
Fold-change AT1G68810 basic helix-loop-helix (bHLH) family protein (120 min): 0.83
Fold-change AT1G69160 expressed protein (120 min): 0.59
Fold-change AT1G70990 proline-rich family protein (120 min): 2.22
Fold-change AT1G71030 Encodes a putative myb family transcription factor (120 min): 0.13
Fold-change AT1G72060 expressed protein (120 min): 0.92
Fold-change AT1G72180 leucine-rich repeat transmembrane protein kinase (120 min): 0.22
Fold-change AT1G72800 nuM1-related, contains (120 min): 2.85
Fold-change AT1G75270 dehydroascorbate reductase (120 min): 1.66
Fold-change AT1G75500 nodulin MtN21 family protein (120 min): 0.56
Fold-change AT1G76240 expressed protein, (120 min): 0.16
Fold-change AT1G76410 zinc finger (C3HC4-type RING finger) (120 min): 0.43
Fold-change AT1G79110 expressed protein (120 min): 0.77
Fold-change AT1G79630 protein phosphatase 2C family protein (120 min): 0.37
Fold-change AT1G80440 kelch repeat-containing F-box family protein (120 min): 2.93
Fold-change AT2G01300 expressed protein (120 min): 4.83
Fold-change AT2G01990 expressed protein, (120 min): 1.06
Fold-change AT2G04240 zinc finger (C3HC4-type RING finger) family protein (120 min): 2.81
Fold-change AT2G05540 glycine-rich protein (120 min): 0.46
Fold-change AT2G12290; AT4G19700 [AT2G12290, expressed protein]; [AT4G19700, expressed protein] (120 min): 0.55
Fold-change AT2G18010 auxin-responsive family protein (SAUR10) (120 min): 9.13
Fold-change AT2G19800 expressed protein (120 min): 1.78
Fold-change AT2G22860 phytosulfokines 2 (PSK2) (120 min): 0.44
Fold-change AT2G23180 cytochrome P450, putative (120 min): 0.42
Fold-change AT2G23320 WRKY family transcription factor (120 min): 0.50
Fold-change AT2G26530 expressed protein (120 min): 0.86
Fold-change AT2G26710 cytochrome p450 family (BAS1) (120 min): 5.42
Fold-change AT2G28510 Dof-type zinc finger domain-containing protein (120 min): 0.51
Fold-change AT2G29340 short-chain dehydrogenase/reductase (SDR) family protein (120 min): 1.29
Fold-change AT2G29990 pyridine nucleotide-disulphide oxidoreductase family protein (120 min): 0.48
Fold-change AT2G30070 potassium transporter (KUP1) (120 min): 0.38
Fold-change AT2G31230 encodes a member of the ERF (ethylene response factor) (120 min): 2.74
Fold-change AT2G34650 protein kinase PINOID (PID) (120 min): 3.26
Fold-change AT2G36220 expressed protein (120 min): 2.62
Fold-change AT2G37590 Dof-type zinc finger domain-containing protein (120 min): 1.19
Fold-change AT2G38470 WRKY family transcription factor (120 min): 0.57
Fold-change AT2G39710 aspartyl protease family protein (120 min): 1.00
Fold-change AT2G40340; AT2G40350 [AT2G40340, encodes a member of the DREB subfamily A-2 of ERF/AP2 (120 min): 1.68
Fold-change AT2G41250 haloacid dehalogenase-like hydrolase family protein (120 min): 0.44
Fold-change AT2G41640 expressed protein (120 min): 1.43
Fold-change AT2G42280 basic helix-loop-helix (bHLH) family protein (120 min): 0.41
Fold-change AT2G43060 expressed protein, similar to cDNA bHLH transcription factor (120 min): 0.36
Fold-change AT2G43280 far-red impaired responsive family protein (120 min): 0.51
Fold-change AT2G43290 calmodulin-like protein (MSS3) (120 min): 2.99
Fold-change AT2G44130 kelch repeat-containing F-box family protein (120 min): 6.30
Fold-change AT2G44500 expressed protein (120 min): 2.06
Fold-change AT2G45210 auxin-responsive protein-related (120 min): 0.21
Fold-change AT2G45680 TCP family transcription factor (120 min): 0.82
Fold-change AT2G46225 Encodes a subunit of the WAVE complex (120 min): 0.47
Fold-change AT2G47440 DNAJ heat shock N-terminal domain-containing protein (120 min): 2.23
Fold-change AT3G04210 disease resistance protein (TIR-NBS class), putative, (120 min): 1.00
Fold-change AT3G09920 phosphatidylinositol-4-phosphate 5-kinase family protein (120 min): 0.42
Fold-change AT3G12920 expressed protein (120 min): 0.41
Fold-change AT3G13040 myb family transcription factor (120 min): 0.54
Fold-change AT3G13510 expressed protein (120 min): 0.83
Fold-change AT3G13980 expressed protein (120 min): 0.45
Fold-change AT3G14370 protein kinase family protein (120 min): 3.50
Fold-change AT3G14560 expressed protein (120 min): 0.50
Fold-change AT3G16570 rapid alkalinization factor (RALF) family protein (120 min): 0.87
Fold-change AT3G17860 expressed protein (120 min): 0.74
Fold-change AT3G18830 polyol/cyclitol/monosaccharide-H+-symporte (120 min): 1.14
Fold-change AT3G19380 U-box domain-containing protein (120 min): 0.27
Fold-change AT3G23030 auxin-responsive protein/indoleacetic acid-induced protein 2 (IAA2) (120 min): 0.39
Fold-change AT3G23550 MATE efflux family protein (120 min): 0.31
Fold-change AT3G25710 basic helix-loop-helix (bHLH) family protein (120 min): 0.53
Fold-change AT3G25900 homocysteine S-methyltransferase 1 (HMT-1) (120 min): 2.22
Fold-change AT3G26910 hydroxyproline-rich glycoprotein family protein (120 min): 0.60
Fold-change AT3G30180 cytochrome p450 enzyme (120 min): 0.07
Fold-change AT3G46880 expressed protein, (120 min): 0.60
Fold-change AT3G47800 aldose 1-epimerase family protein (120 min): 0.26
Fold-change AT3G48970 copper-binding family protein (120 min): 0.59
Fold-change AT3G49810 U-box domain-containing protein (120 min): 0.56
Fold-change AT3G50650 scarecrow-like transcription factor 7 (SCL7) (120 min): 1.82
Fold-change AT3G50660 steroid 22-alpha-hydroxylase (CYP90B1) (DWF4) (120 min): 0.02
Fold-change AT3G50750 brassinosteroid signalling positive regulator-related (BEH1) (120 min): 0.35
Fold-change AT3G52490 heat shock protein-related (120 min): 1.08
Fold-change AT3G53810 lectin protein kinase (120 min): 1.19
Fold-change AT3G54950 patatin-related, (120 min): 0.39
Fold-change AT3G55120 chalcone-flavanone isomerase (120 min): 0.68
Fold-change AT3G55150 exocyst subunit EXO70 family protein (120 min): 0.13
Fold-change AT3G55840 expressed protein (120 min): 7.41
Fold-change AT3G61460 zinc finger (C3HC4-type RING finger) family protein (BRH1) (120 min): 0.43
Fold-change AT3G63300 expressed protein (120 min): 1.13
Fold-change AT4G01680 myb family transcription factor (MYB55) (120 min): 0.14
Fold-change AT4G02410 lectin protein kinase family protein (120 min): 0.59
Fold-change AT4G08040 1-aminocyclopropane-1-carboxylate synthase, putative (120 min): 0.02
Fold-change AT4G09460 myb family transcription factor (120 min): 2.76
Fold-change AT4G12390 invertase/pectin methylesterase inhibitor family protein (120 min): 0.66
Fold-change AT4G12410 auxin-responsive family protein (120 min): 0.44
Fold-change AT4G14130 xyloglucan:xyloglucosyl transferase (120 min): 0.08
Fold-change AT4G15975 zinc finger (C3HC4-type RING finger) family protein (120 min): 1.05
Fold-change AT4G16146 expressed protein (120 min): 0.55
Fold-change AT4G16563 aspartyl protease family protein (120 min): 2.89
Fold-change AT4G16670 expressed protein (120 min): 0.35
